Test results as given in ChEMBL document CHEMBL1157539, “Thousands of chemical starting points for antimalarial lead identification” (Nature, 2010).

System: Plasmodium falciparum
Assay: GSK_TCMDC: Inhibition of Plasmodium falciparum 3D7 in whole erythrocytes, using parasite LDH activity as an index of growth.
Assay type: functional, organism-based
Conditions: Plasmodium falciparum, 3D7

| SMILES | XC50 |
| --- | --- |
| Cc1ccc2nc(C)n(C3CCN(C(=O)Cc4ccc(F)c(F)c4)CC3)c2c1 | 474 nM |
| Cc1cc(N2CCCC2)nc(Nc2ccc(NC(=O)c3ccc(Br)o3)cc2)n1 | 623 nM |
| CC(=O)Nc1ccc(C(=O)Nc2cccc(-c3ccc(-c4nc5cc(F)ccc5[nH]4)s3)c2)cn1 | 233 nM |
| CC(C)CNCc1cccc(-c2ccc(CNc3ccc(C(=O)c4ccccc4)cc3)cc2)c1 | 760 nM |
| Cc1[nH]cnc1CSCCNC(=N)NCCCCCCCCNC(=N)NCCSCc1nc[nH]c1C | 268 nM |
| O=C(Nc1ccc(S(=O)(=O)N2CCCCCC2)cc1)c1cc(-c2ccccc2O)n[nH]1 | 717 nM |
| O=C(NC1CC1)c1ccc(N2CCC(COc3cccc(F)c3)CC2)nc1 | 1240 nM |
| CC(C)(CNC(=O)[C@@H]1CCCN(CCOc2ccc(F)c(F)c2)C1)c1nc(-c2ccc(Cl)c(O)c2)c(-c2ccncc2)[nH]1 | 722 nM |
| COc1ccc2c(N/N=C/c3cccc([N+](=O)[O-])c3)cc(C)nc2c1 | 557 nM |
| COc1ccc(C(=O)NC2CCN(c3ccnc4cc(Cl)ccc34)C2)cc1 (stereo not drawn) | 231 nM |
| Cc1cc(Nc2ccncc2)n2nc(C)c(-c3ccccc3Cl)c2n1 | 654 nM |
| Cc1c(CNCCCNc2nc3ccccc3[nH]2)[nH]c2cc(Cl)cc(Cl)c12 | 232 nM |
| COc1ccc(NC(=O)Nc2nc3ccccc3s2)cc1N1CCN(C)CC1 | 703 nM |
| Cc1cc(O)c(-c2cc(C(=O)Nc3cccnc3)[nH]n2)cc1C | 772 nM |
| O=C(/C=C/c1ccc(Cl)c(Cl)c1)Nc1cccc(CN2CCC(c3c[nH]c4ccccc34)CC2)c1 | 670 nM |
| CCC(C)NC(=O)Nc1ccc(-c2cccc(-c3nc4ccccc4[nH]3)c2)cc1 (stereo not drawn) | 821 nM |
| COc1ccc(-n2ccnc2SCC(=O)Nc2cc(C(F)(F)F)ccc2Cl)c(OC)c1 | 35 nM |
| COc1ccc2ccccc2c1CNCC1CCN(CC2CCCCC2)CC1 | 761 nM |
| CCOC(C(=O)OCC1CCCN1C)(c1ccccc1)c1ccccc1 (stereo not drawn) | 863 nM |
| COc1ccc(-c2nccc(NC(=N)NCc3ccccc3)n2)cc1 | 671 nM |
| CN(C)S(=O)(=O)c1ccc(Nc2nc(NCCC3C=NC=N3)nc3cc[nH]c(=O)c23)cc1 (stereo not drawn) | 929 nM |
| CN(CCCCNC(=O)c1cc2ccccc2[nH]1)C1CC2(CCN(C(=O)OC(C)(C)C)CC2)c2ccccc21 (stereo not drawn) | 928 nM |
| Cc1cc(N[C@@H](Cc2ccccc2)C(=O)NCc2cccs2)nc(NCCOc2ccccc2)n1 | 1480 nM |
| CCc1cn2c3c(cc(C(=O)N[C@@H](Cc4ccccc4)[C@H](O)CNC4CCOCC4)cc13)N(C)S(=O)(=O)C2 | 87.7 nM |
| CCN(CC)c1ccc(C(c2ccc(N(CC)CC)cc2)c2cccc([N+](=O)[O-])c2)cc1 | 381 nM |

| SMILES | XC50 |
| --- | --- |
| CCc1ccccc1N1CCN(CCCCNC(=O)c2ccc(NC(=O)c3ccc(Cl)cc3)cc2)CC1 | 960 nM |
| CC(=O)Nc1cc(C(=O)Nc2ccc(C3=NCCN3)cc2)ccc1C(=O)Nc1ccc(C2=NCCN2)cc1 | 133 nM |
| CCN1CCN(c2cc(C)c3cc(NC(=O)c4cccc(Cl)c4)ccc3n2)CC1 | 775 nM |
| CO/C(=C\C=C\c1cc2cc(Cl)ccc2[nH]1)C(=O)NCCCN1CCN(c2cc(Cl)ccc2OC)CC1 | 877 nM |
| Cc1cccc2c(/C=C/C(=O)NC3CCC(CCN4CCc5ccc(C#N)cc5CC4)CC3)c[nH]c12 (stereo not drawn) | 1220 nM |
| CN1CCN(c2ccc3nccc(CCN4CCC(NCc5ccc6c(n5)NC(=O)CO6)CC4)c3n2)CC1 | 824 nM |
| Cc1nccc2c(NC(=O)N[C@@H]3CCN(c4ncc(C(F)(F)F)cc4Br)C3)cccc12 | 364 nM |
| Cc1cc(=O)c(C2CCC(c3ccc(Cl)cc3)CC2)c(C)[nH]1 (stereo not drawn) | 743 nM |
| CCN(CC)CCOc1c(Cl)cc(Cl)cc1CNCCCNc1cc(=O)c2ccccc2[nH]1 | 871 nM |
| O=C(Nc1ccc(SC(F)(F)F)cc1)Nc1ccc(Cl)c(Cl)c1 | 909 nM |
| COc1ccc2c(=NN=Cc3cccc(F)c3)cc(C)[nH]c2c1 | 777 nM |
| CCN(CC)CCCOc1ccc(Nc2nccc(-c3c(-c4cccc(NC(=O)c5c(F)cccc5F)c4)nn4ccccc34)n2)cc1F | 407 nM |
| O=C(NCc1cccc(F)c1)c1ccc(O)c(-c2cc(Cl)cc(Cl)c2)c1 | 559 nM |
| COc1ccc2nccc([C@@H](O)CN3CCC(NCc4cc5c(cc4F)SCC(=O)N5)CC3)c2n1 | 1000 nM |
| Cc1ccccc1C1CCN(c2ccc(C(=O)NC3CC3)cn2)CC1 | 846 nM |
| Cc1cc(C(=O)NC2CCN(CC3(c4ccccc4)CCCCC3)CC2)on1 | 258 nM |
| CCNc1cc(C(=O)NC(Cc2ccccc2)C(O)CNC(C)(C)CCCC(C)C)c(F)c(N2CCCS2(=O)=O)c1 (stereo not drawn) | 197 nM |
| CC(=O)Nc1ccc([N+](=O)[O-])c2c(Br)cccc12 | 636 nM |
| CCCCCCN1CCCN(Cc2ccc(C(=O)Nc3ccc(CCC)cc3)cc2)CC1 | 661 nM |
| O=C(Nc1ccccc1)N(Cc1ccc(-c2cccc(CNCc3ccc4c(c3)OCO4)c2)cc1)C1CCN(Cc2ccccc2)CC1 | 284 nM |
| Cc1[nH]c(C)c(-c2ccc(Oc3cccc(Cl)c3)cc2)c(=O)c1Br | 34.2 nM |
| CCCN1CCN(CCNC(=O)c2cccc(Nc3nccc(Nc4ccc(Oc5ccccc5)cc4)n3)c2)CC1 | 239 nM |
| O=C(Cn1cc(C(F)(F)F)cc(Cl)c1=O)N1CCN(S(=O)(=O)c2ccc(Cl)cc2)CC1 | 897 nM |
| COc1ccc(NC(=O)Nc2ccc(-c3ccc(-c4nc5ccccc5[nH]4)cc3)cc2)cc1 | 509 nM |
| O=C(NCc1ccc(Cl)cc1)c1ccc(CN2CCCN(CC3CCCCC3)CC2)cc1 | 1700 nM |

| SMILES | XC50 |
| --- | --- |
| CCOC(=O)c1ccc(-n2c(C)cc(C=C3SC(=Nc4ccccc4)N(C4CCCC4)C3=O)c2C)cc1 | 1170 nM |
| O=C(C=Cc1ccc(C(=O)Nc2ccc(C3=NCCN3)cc2)cc1)Nc1ccc(C2=NCCN2)cc1 | 34.7 nM |
| Cc1ccccc1-c1cc(=O)c2cc(NC(=O)c3cccs3)ccc2o1 | 218 nM |
| COc1ccc(C=NN=c2cc[nH]c3ccccc23)c2ccccc12 | 696 nM |
| Cc1nc2ccccc2c(O)c1[N+](=O)[O-] | 1110 nM |
| Cc1cccc2nc(-c3cccc(-c4ccc(NC(=O)Nc5ccsc5)cc4)c3)[nH]c12 | 116 nM |
| O=S(=O)(Nc1ccc(CCN2CCC(N3CCCCC3)CC2)cc1)c1ccc(Cl)cc1 | 1090 nM |
| Cn1ncc2c3c(CCN4CCC(NCc5cc6c(cn5)OCCO6)CC4)c(Cl)cnc3ccc21 | 775 nM |
| COc1cccc(NC(=O)c2cc([N+](=O)[O-])ccc2NC(=O)CN2CCc3ccccc3C2)c1 | 589 nM |
| COc1ccc(C(=O)Nc2nonc2-c2ccc(OC)c(OC)c2)cc1Cl | 675 nM |
| COc1cccc(Cc2cnc3nc(N)nc(N)c3c2C)c1 | 173 nM |
| c1ccc2c(NCCc3c[nH]cn3)c3ccccc3nc2c1 | 1040 nM |
| CC[C@H](C)CNC(=O)c1cncc(-c2ccc(CN3CCC(N4CCCC4)CC3)cc2)c1 | 968 nM |
| Oc1ccc(CCCNc2nc(NCc3cccc4ccccc34)nc(N3CCCNCC3)n2)cc1 | 987 nM |
| CCCCc1cc(NCc2ccncc2)nc(Nc2cccc(OC)c2)n1 | 742 nM |
| CCN(CCCN1CCCCC1)c1cc(C)nc(Nc2ccc(C)cc2Cl)n1 | 339 nM |
| O=c1[nH]c2ccc(Nc3nccc(NCCc4ccccc4)n3)cc2[nH]1 | 1210 nM |
| Oc1ccc2[nH]c(-c3cccs3)nc2c1CN1CCC(N2CCCC2)CC1 | 642 nM |
| COc1cccc(CNC(=O)c2ccnc(-c3cccc(CN(C)C4CCN(C)CC4)c3)c2)c1 | 834 nM |
| Clc1ccc(Sc2cncnc2N2CCOCC2)cc1 | 40.2 nM |
| Cc1cccc2nc(-c3ccc(-c4cccc(NC(=O)Nc5ccc6c(c5)OCO6)c4)cc3)[nH]c12 | 745 nM |
| CC(C)CN(c1nc(C(=O)NNC(=O)[C@H](CC2CC2)NC(=O)c2cc3cc(OCCN4CCCCC4)ccc3o2)cs1)C1CC1 | 213 nM |
| COc1ccc(CNCc2ccc(-c3ccc(CNCCc4ccccc4)cn3)cc2)cn1 | 1010 nM |
| Oc1ccc(Nc2nc(N3CCCC3)c3ccccc3n2)cc1 | 270 nM |
| CC(C)C(=O)ONC1=NC(=N)N(OCCCOc2cc(Cl)c(Cl)cc2Cl)C(C)(C)N1 | 3.2 nM |

| SMILES | XC50 |
| --- | --- |
| Cc1cc2[nH]c(-c3ccc(C(=O)NCCCN4CCN(c5cccc(Cl)c5)CC4)cc3F)nc2cc1Cl | 479 nM |
| O=C1c2ccccc2CCC1CCN1CC=C(c2c[nH]c3ccccc23)CC1 (stereo not drawn) | 697 nM |
| CCN(CC)CCN(Cc1ccc(-c2ccc(C(F)(F)F)cc2)cc1)C(=O)Cn1c(CCc2c(F)ccc(F)c2F)nc(=O)c2ccccc21 | 238 nM |
| COc1cc2nc(N3CC(C)N(C(=O)Cc4ccc(-c5ccccc5)cc4)C(C)C3)nc(N)c2cc1OC (stereo not drawn) | 796 nM |
| CCCCCOc1c(CCC)cc(Cc2cnc(N)nc2N)cc1CCC | 898 nM |
| Cc1cccc2nc(-c3cccc(-c4ccc(C(=O)NCCc5ccc(O)c(=O)[nH]5)cc4)c3)[nH]c12 | 1190 nM |
| c1ccc(CNCc2cccc(-c3ccc(-c4nc5ccccc5[nH]4)s3)c2)cc1 | 818 nM |
| COC(=O)c1cccc(NC(=O)NC2CCN(c3ccnc(Nc4ccc(F)cc4)n3)C2)c1 (stereo not drawn) | 500 nM |
| COc1ccc(Nc2nccc(N3CCC(NC(=O)C(C)c4ccc(Cl)cc4)CC3)n2)cc1 (stereo not drawn) | 934 nM |
| O=C1COC(c2ccccc2)(c2ccccc2)CN1CC1CCN(Cc2ccc(O)cc2Cl)C1 (stereo not drawn) | 999 nM |
| Cc1cc(OCCN2CCCCC2)ccc1NC(=O)c1cccc2c(=O)n(Cc3ccc(Cl)cc3)cnc12 | 1060 nM |
| CC(C)NCc1cc(Nc2ccnc3cc(Cl)ccc23)ccc1O | 25 nM |
| CCCNCc1ccc(-c2ccc(CN(Cc3ccc4c(c3)OCO4)C(=O)[C@H]3CCCO3)cc2)nc1 | 811 nM |
| ON=C(c1nc2ccccc2[nH]1)c1nc2ccccc2[nH]1 | 1090 nM |
| CC(C)C(C(=O)n1ncc2c3c(N)nc(N)nc3ccc21)C(C)C | 648 nM |
| COc1ccc(-c2ccc(Nc3cccc(S(=O)(=O)CCN4CCC(CCN(C)C)CC4)c3)nc2)cn1 | 1120 nM |
| CC(C)c1ccc2oc(-c3ccc(NC(=O)c4ccc([N+](=O)[O-])o4)cc3)nc2c1 | 340 nM |
| CC(C)c1ncc(-c2ccncc2)c(C2CCC(CNC(=O)c3cccnc3)CC2)n1 (stereo not drawn) | 776 nM |
| O=C(Nc1cccc(CN2CCN(C(=O)c3cccc(Cl)c3)CC2)c1)c1ccco1 | 438 nM |
| COc1cccc(C2=CC(c3ccccc3)n3ncc(C(=O)Nc4ccc(Cl)cc4)c3N2)c1 (stereo not drawn) | 1060 nM |
| CCCN(CCCN(CCCN(CCC)C(C)C)c1cc(C)nc(Nc2ccc(Cl)cc2)n1)C(C)C | 113 nM |
| CCC(C)NC(=O)CN1CN(c2ccccc2)C2(CCN(C(=O)c3ccc(-c4ccccc4)cc3)CC2)C1=O (stereo not drawn) | 128 nM |
| O=C(NCCN1CCCCC1)c1ccc(CNC(=O)c2ccc(O)c(-c3cccc(C(F)(F)F)c3)c2)cc1 | 886 nM |
